Laboratory results reported in PMC12702776 (Cancer Gene Therapy, 2025).
pKd: −log10 of the molar value.

Tests used:
[1] = tested on: DHR2 domain of DOCK2; design: method as in PMID 22520755; conditions: cited from earlier work
[2] = molecular target: T1, DOCK2 (Homo sapiens, UniProt Q92608); assay: Active GTPase pull-down assay in IGR1 melanoma cells treated with DOCK2 inhibitor; type: cell-based; conditions: serum-stimulated IGR1 cells, 25 µM and 100 µM
T1 construct: endogenous in cells; host or cells: IGR1 human melanoma cells
Method: HEK-293T and IGR1 human melanoma cells were cultured under serum-stimulated and serum-starved conditions in DMEM supplemented with 10% FBS and 1% penicillin/streptomycin. The HEK-293T cells were then transfected with RAC1 constructs containing N-terminal 10×His–triple FLAG tags using TurboFect™ (Thermo Fisher Scientific), according to the manufacturer’s protocol. The HEK-293T cells were cultured and harvested under serum-stimulated or serum-starved conditions without additional treatment. IGR1 cells, in contrast, were treated with the DOCK2 inhibitor CPYPP (MedChemExpress) at 25 µM and 100 µM concentrations, with 0.5% DMSO as a vehicle control. After treatment, cells were harvested and lysed, and protein concentrations were determined using the Bradford assay. Detailed protocols, including buffer compositions, are provided in the Supplementary Information.
Experiments were conducted under both serum-stimulated and serum-starved conditions, as described previously. […] After incubation, the beads were washed and analyzed by SDS-PAGE followed by immunoblotting. […]
Cell culture, transfection, and treatment. […] The resulting supernatants were collected for downstream applications, and protein concentrations were determined using the Bradford assay.
Active GTPase pull-down assay. […] Samples were analyzed by SDS-PAGE and immunoblotting […]

[3] = tested on: IGR1 cells; conditions: cited from earlier work
[4] = molecular target: T2, RAC1^P29S (Homo sapiens, UniProt P63000, P29S); assay: Nucleotide-binding assay (stopped-flow fluorimetry); conditions: RAC1 P29S compared to RAC1 WT
T2 construct: GST (N); made in house; host or cells: Escherichia coli
Method: (§1) The nucleotide-binding properties of RAC1 GTPases were assessed by stopped-flow fluorimetry, as described. Nucleotide association and dissociation rates were measured using fluorescent nucleotides (mdGDP and mGppNHp) and varying RAC1 concentrations. Association (kon) and dissociation (koff) rate constants were determined, and equilibrium dissociation constants (Kd) were calculated as described in Box 2. Detailed procedures are provided in the Supplementary Materials.
(§2) Nucleotide-binding assay. The nucleotide-binding properties of the RAC1 GTPases were assessed using a stopped-flow fluorimetry approach, as described (10). ucleotide association was measured with 0.1 µM fluorescently labeled nucleotides, such as mdGDP and mGppNHp, and varying concentrations of nucleotide-free RAC1 proteins (0.25–5 μM). Measurements were conducted in a buffer containing 30 mM Tris-HCl, pH 7.5, 10 mM KH2PO4/K2HPO4, 5 mM MgCl2, and 3 mM DTT, at 25 °C. The association rate constant (kon) was determined by plotting the observed rate constants (kobs) against the concentration of nucleotide-free RAC1 and analyzing the slope via linear regression using Origin software. The dissociation rate constant (koff) of the fluorescent nucleotide from RAC1 proteins (0.1 µM) was measured by adding a 200-fold excess of the non-fluorescent nucleotide (20 µM). The affinity of RAC1 proteins for GDP and GppNHp was calculated by dividing koff by kon, yielding the equilibrium dissociation constants (Kd), as defined in Box 2 of the main text.

[5] = molecular target: T3, RAC1^T17N (Homo sapiens, UniProt P63000, T17N); assay: as above
T3 construct: GST (N); made in house; host or cells: Escherichia coli
Method: as §1, §2

[6] = molecular target: T4, RAC1^F28L (Homo sapiens, UniProt P63000, F28L); assay: as above; conditions: faster than RAC1 WT
T4 construct: GST (N); made in house; host or cells: Escherichia coli
Method: as §1, §2

[7] = molecular target: T5, RAC1^WT (Homo sapiens, UniProt P63000); assay: as above
T5 construct: GST (N); made in house; host or cells: Escherichia coli
Method: as §1, §2

T1 sequence (Q92608 whole entry): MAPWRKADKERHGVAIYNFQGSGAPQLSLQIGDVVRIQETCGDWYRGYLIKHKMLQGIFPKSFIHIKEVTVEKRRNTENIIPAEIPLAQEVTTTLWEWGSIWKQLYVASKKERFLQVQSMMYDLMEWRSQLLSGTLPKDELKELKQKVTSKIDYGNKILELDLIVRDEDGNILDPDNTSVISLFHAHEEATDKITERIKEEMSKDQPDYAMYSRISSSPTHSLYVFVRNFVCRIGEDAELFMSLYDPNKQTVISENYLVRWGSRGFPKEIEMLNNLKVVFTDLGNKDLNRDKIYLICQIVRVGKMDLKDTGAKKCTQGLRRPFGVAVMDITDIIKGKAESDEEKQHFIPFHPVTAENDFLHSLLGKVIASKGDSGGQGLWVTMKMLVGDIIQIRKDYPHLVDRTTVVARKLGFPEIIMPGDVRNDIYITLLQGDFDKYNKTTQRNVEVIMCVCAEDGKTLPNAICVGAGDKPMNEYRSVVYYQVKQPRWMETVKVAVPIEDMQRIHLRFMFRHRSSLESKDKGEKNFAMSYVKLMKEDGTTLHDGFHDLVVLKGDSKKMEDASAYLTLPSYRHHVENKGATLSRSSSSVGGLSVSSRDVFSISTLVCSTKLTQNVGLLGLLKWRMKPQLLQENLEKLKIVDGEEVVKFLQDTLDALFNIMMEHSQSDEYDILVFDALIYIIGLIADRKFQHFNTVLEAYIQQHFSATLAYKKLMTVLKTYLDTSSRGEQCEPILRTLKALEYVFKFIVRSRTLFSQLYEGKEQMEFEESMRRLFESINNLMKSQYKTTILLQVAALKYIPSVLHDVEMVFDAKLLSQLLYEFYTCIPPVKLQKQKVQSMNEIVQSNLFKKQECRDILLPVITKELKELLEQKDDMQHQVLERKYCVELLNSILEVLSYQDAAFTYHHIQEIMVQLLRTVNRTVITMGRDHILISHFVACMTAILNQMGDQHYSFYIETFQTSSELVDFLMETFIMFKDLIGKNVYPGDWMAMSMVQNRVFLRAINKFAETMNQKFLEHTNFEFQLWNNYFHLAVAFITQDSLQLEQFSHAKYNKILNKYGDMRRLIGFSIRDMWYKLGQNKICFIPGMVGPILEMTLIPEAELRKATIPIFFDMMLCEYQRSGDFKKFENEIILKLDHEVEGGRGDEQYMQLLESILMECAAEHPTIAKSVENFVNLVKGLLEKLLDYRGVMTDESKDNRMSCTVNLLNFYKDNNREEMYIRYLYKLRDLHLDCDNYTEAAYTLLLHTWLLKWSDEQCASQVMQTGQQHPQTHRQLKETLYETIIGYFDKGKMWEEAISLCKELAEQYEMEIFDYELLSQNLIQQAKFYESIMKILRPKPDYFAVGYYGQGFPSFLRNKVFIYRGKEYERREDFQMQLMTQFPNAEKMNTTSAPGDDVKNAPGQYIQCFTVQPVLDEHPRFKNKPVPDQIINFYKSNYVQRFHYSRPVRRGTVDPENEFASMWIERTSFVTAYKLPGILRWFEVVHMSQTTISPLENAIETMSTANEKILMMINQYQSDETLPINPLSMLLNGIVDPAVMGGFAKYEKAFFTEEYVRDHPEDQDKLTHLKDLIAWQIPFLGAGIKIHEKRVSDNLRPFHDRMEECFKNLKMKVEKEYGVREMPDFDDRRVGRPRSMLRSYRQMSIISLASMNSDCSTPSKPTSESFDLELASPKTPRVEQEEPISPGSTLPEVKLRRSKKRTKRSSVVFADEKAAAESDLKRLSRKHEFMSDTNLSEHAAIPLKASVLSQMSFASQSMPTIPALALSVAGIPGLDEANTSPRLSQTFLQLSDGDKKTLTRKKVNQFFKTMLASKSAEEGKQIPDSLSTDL

| Molecule | sensitivity of IGR1 cells (RAC1^P29S, BRAF^V600K) [3] | Kd, lower affinity P29S vs WT [4] [fold] | kon, reduction P29S vs WT [4] [fold] | pKd [7] | other results |
| --- | --- | --- | --- | --- | --- |
| O=C1NN(c2ccccc2)C(=O)/C1=C/C=C/c1ccccc1Cl [CPYPP] |  |  |  |  | effect on DOCK2 catalytic activity [1]: reversibly blocking its catalytic activity; effect on RAC1^P29S activation [2]: reduced RAC1^P29S activation in a dose-dependent manner |
| CC(C)(C)c1nc(-c2cccc(NS(=O)(=O)c3c(F)cccc3F)c2F)c(-c2ccnc(N)n2)s1 [dabrafenib] | reduced sensitivity |  |  |  |  |
| CNc1ccccc1C(=O)O[C@H]1C[C@H](n2cnc3c(=O)[nH]c(N)nc32)O[C@@H]1COP(=O)(O)OP(=O)(O)O [mdGDP, methylanthraniloyl-2'-deoxy-guanosine 5′-diphosphate] |  | 147 | 14 | 9.52 | koff, increase P29S vs WT [4]: 10 fold; decrease in binding affinity, T17N vs WT ([5]; RAC1 T17N compared to RAC1 WT): 1346 fold; dissociation rate, T17N vs WT ([5]; higher than RAC1 WT): 410 fold; intrinsic nucleotide dissociation rate, F28L vs WT [6]: 20 fold |
| CCCS(=O)(=O)Nc1ccc(F)c(C(=O)c2c[nH]c3ncc(-c4ccc(Cl)cc4)cc23)c1F [vemurafenib] | reduced sensitivity |  |  |  |  |
| methylanthraniloyl guanosine 5'-[beta,gamma-imido]triphosphate [mGppNHp] |  | 289 | 27 | 9.22 |  |
